Consider 31 compounds from patent US9790230B2 (Hoffmann-La Roche Inc., priority 2015, dated 2017).

Like-named read-outs stand apart in the source and are kept apart here.

For one assay, the target named is rat TAAR1 (Rattus norvegicus (Rat), UniProt Q923Y9). Description: Radioligand binding assay on rat TAAR1.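 Further: membranes from HEK293 cells stably transfected with rat TAAR1, tritiated TAAR1 radioligand, 1 h incubation at 4 °C, nonspecific binding determined with excess unlabeled ligand.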
A further assay addresses mouse TAAR1 (Mus musculus (Mouse), UniProt Q923Y8). Description: Radioligand binding assay on mouse TAAR1.
The mark [1] stands for this setting: read-out: Ki (μM) rat, rat TAAR1, HEK-293 membranes, second value of cell mouse/rat.

Chain of mouse TAAR1 (Q923Y8 whole entry): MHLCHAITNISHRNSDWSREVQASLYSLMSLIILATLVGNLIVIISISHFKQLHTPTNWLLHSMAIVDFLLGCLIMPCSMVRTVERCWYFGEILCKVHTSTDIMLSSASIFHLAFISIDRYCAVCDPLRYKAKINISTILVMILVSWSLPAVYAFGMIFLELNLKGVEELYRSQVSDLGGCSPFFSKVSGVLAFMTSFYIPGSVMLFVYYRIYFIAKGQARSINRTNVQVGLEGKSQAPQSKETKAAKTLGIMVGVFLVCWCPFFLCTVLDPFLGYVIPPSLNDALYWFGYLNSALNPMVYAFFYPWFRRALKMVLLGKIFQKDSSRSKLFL
Chain of rat TAAR1 (Q923Y9 whole entry): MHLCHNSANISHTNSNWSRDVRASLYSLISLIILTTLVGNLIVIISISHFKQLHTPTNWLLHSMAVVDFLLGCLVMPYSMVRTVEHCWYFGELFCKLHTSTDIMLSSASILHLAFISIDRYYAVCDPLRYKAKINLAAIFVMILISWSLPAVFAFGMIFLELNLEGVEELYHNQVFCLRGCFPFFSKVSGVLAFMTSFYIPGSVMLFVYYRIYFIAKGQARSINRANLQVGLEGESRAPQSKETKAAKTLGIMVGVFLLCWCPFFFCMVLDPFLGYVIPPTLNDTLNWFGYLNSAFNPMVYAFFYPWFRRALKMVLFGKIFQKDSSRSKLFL
Description for rat TAAR1: Membrane Preparation and Radioligand Binding.
HEK-293 cells stably expressing rat TAAR1 were maintained at 37° C. and 5% CO2 in DMEM high glucose medium, containing fetal calf serum (10%, heat inactivated for 30 min at 56° C.), penicillin/streptomycin (1%), and 375 μg/ml geneticin (Gibco). Cells were released from culture flasks using trypsin/EDTA, harvested, washed twice with ice-cold PBS (without Ca^2+ and Mg^2+), pelleted at 1'000 rpm for 5 min at 4° C., frozen and stored at −80° C. Frozen pellets were suspended in 20 ml HEPES-NaOH (20 mM, pH 7.4) containing 10 mM EDTA and homogenized with a Polytron (PT 6000, Kinematica) at 14′000 rpm for 20 s. The homogenate was centrifuged at 48'000×g for 30 min at 4° C. Subsequently, the supernatant was removed and discarded, and the pellet resuspended in 20 ml HEPES-NaOH (20 mM, pH 7.4) containing 0.1 mM EDTA using the Polytron (20 s at 14'000 rpm). This procedure was repeated and the final pellet resuspended in HEPES-NaOH containing 0.1 mM EDTA and homogenized using the Polytron. Typically, aliquots of 2 ml membrane portions were stored at −80° C. With each new membrane batch the dissociation constant (Kd) was determined via a saturation curve. […] Nonspecific binding was defined as the amount of 3 [H]—(S)-4-[(ethyl-phenyl-amino)-methyl]-4,5-dihydro-oxazol-2-ylamine bound in the presence of 10 M unlabeled ligand. All compounds were tested at a broad range of concentrations (10 pM to 10 μM) in duplicates. […] The 96 deep well plates were incubated for 1 hr at 4° C. Incubations were terminated by rapid filtration through Unifilter-96 plates (Packard Instrument Company) and glass filters GF/C (Perkin Elmer) presoaked for 1 hr in polyethylenimine (0.3%) and washed 3 times with 1 ml of cold binding buffer. After addition of 45 μl of Microscint 40 (PerkinElmer) the Unifilter-96 plate was sealed and after 1 hr the radioactivity counted using a TopCount Microplate Scintillation Counter (Packard Instrument Company).

As for `O=C(Nc1ccc([C@@H]2O[C@H]3CN[C@@H]2C3)cc1)c1ccc(OCC2CC2)cc1` [Example 12, 4-(Cyclopropylmethoxy)-N-[4-[(1R,3S,4R)-2-oxa-5-azabicyclo[2.2.1]heptan-3-yl]phenyl]benzamide], the Ki on rat TAAR1 is 0.134 µM; at mouse TAAR1, 0.0067 µM.

Regarding `FC(F)(F)c1ccc(CNc2ccc([C@H]3O[C@@H]4CN[C@H]3C4)cc2)cc1` [Example 39, 4-[(1S,3R,4S)-2-Oxa-5-azabicyclo[2.2.1]heptan-3-yl]-N-[[4-(trifluoromethyl)phenyl]methyl]aniline], the inhibition constant (Ki) at rat TAAR1 amounted to 0.359 µM; on mouse TAAR1 it was 0.0069 µM.

In the case of `O=C(Nc1ccc([C@@H]2O[C@H]3CN[C@@H]2C3)cc1)c1ccc(C(F)(F)F)cn1` [Example 71, N-[4-[(1R,3S,4R)-2-Oxa-5-azabicyclo[2.2.1]heptan-3-yl]phenyl]-5-(trifluoromethyl)pyridine-2-carboxamide], the Ki is 0.0135 µM at rat TAAR1 and 0.0054 µM on mouse TAAR1.

For `O=C(CCC(F)(F)F)Nc1ccc([C@@H]2O[C@H]3CN[C@@H]2C3)cc1` [Example 91, 4,4,4-Trifluoro-N-[4-[(1R,3S,4R)-2-oxa-5-azabicyclo[2.2.1]heptan-3-yl]phenyl]butanamide], the inhibition constant (Ki) at rat TAAR1 is more than 1.45 µM; on mouse TAAR1 it was 0.031 µM.

In the case of `CCOc1ccc(C(=O)Nc2ccc([C@H]3O[C@@H]4CN[C@H]3C4)cc2)cn1` [Example 15, 6-Ethoxy-N-[4-[(1S,3R,4S)-2-oxa-5-azabicyclo[2.2.1]heptan-3-yl]phenyl]pyridine-3-carboxamide], the Ki came to 1.9 µM on rat TAAR1 and 0.0155 µM at mouse TAAR1.

In the case of `FC(F)(F)COc1ccnc(Nc2ccc([C@H]3O[C@@H]4CN[C@H]3C4)cc2)n1` [Example 79, N-[4-[(1S,3R,4S)-2-Oxa-5-azabicyclo[2.2.1]heptan-3-yl]phenyl]-4-(2,2,2-trifluoroethoxy)pyrimidin-2-amine], the Ki at rat TAAR1 worked out at 0.0841 µM; at mouse TAAR1, 0.006 µM.

For `CCOc1n[nH]c(C(=O)Nc2ccc([C@@H]3O[C@H]4CN[C@@H]3C4)cc2)c1Cl` [Example 98, 4-Chloro-3-ethoxy-N-[4-[(1R,3S,4R)-2-oxa-5-azabicyclo[2.2.1]heptan-3-yl]phenyl]-1H-pyrazole-5-carboxamide], the Ki is 0.0745 µM at rat TAAR1 and 0.0068 µM at mouse TAAR1.

With `O=C(Nc1ccc([C@@H]2O[C@H]3CN[C@@H]2C3)cc1)c1ccc(C(F)(F)F)nc1` [Example 72, N-[4-[(1R,3S,4R)-2-Oxa-5-azabicyclo[2.2.1]heptan-3-yl]phenyl]-6-(trifluoromethyl)pyridine-3-carboxamide], the values for the Ki at rat TAAR1 and at mouse TAAR1 were 0.0093 µM and 0.0153 µM, respectively.

Consider `FC(F)(F)COc1nccc(Nc2ccc([C@H]3O[C@@H]4CN[C@H]3C4)cc2)n1` [Example 80, N-[4-[(1S,3R,4S)-2-Oxa-5-azabicyclo[2.2.1]heptan-3-yl]phenyl]-2-(2,2,2-trifluoroethoxy)pyrimidin-4-amine], for which the inhibition constant (Ki) at rat TAAR1 was determined as 1.08 µM; on mouse TAAR1, 0.0077 µM.

On to `O=C(Nc1ccc([C@@H]2O[C@H]3CN[C@@H]2C3)cc1)c1ccc(OCC(F)(F)F)nc1` [Example 27, N-[4-[(1R,3S,4R)-2-Oxa-5-azabicyclo[2.2.1]heptan-3-yl]phenyl]-6-(2,2,2-trifluoroethoxy)pyridine-3-carboxamide], for which the Ki at rat TAAR1 worked out at 0.0417 µM; at mouse TAAR1, 0.0097 µM.

Consider `O=C(Nc1ccc([C@@H]2O[C@H]3CN[C@@H]2C3)cc1)c1ccc(Cl)cc1` [Example 7, 4-Chloro-N-[4-[(1R,3S,4R)-2-oxa-5-azabicyclo[2.2.1]heptan-3-yl]phenyl]benzamide], for which the values for the inhibition constant (Ki) on rat TAAR1 and on mouse TAAR1 were 0.106 µM and 0.0044 µM, respectively.

Turning to `FC(F)(F)c1ccc(Nc2ccc([C@H]3O[C@@H]4CN[C@H]3C4)cc2)cn1` [Example 61, N-[4-[(1S,3R,4S)-2-Oxa-5-azabicyclo[2.2.1]heptan-3-yl]phenyl]-6-(trifluoromethyl)pyridin-3-amine], the Ki at rat TAAR1 amounted to 0.715 µM; on mouse TAAR1, 0.0077 µM.

For the compound `O=C(Nc1ccc([C@H]2O[C@@H]3CN[C@H]2C3)cc1)c1ccc(C(F)(F)F)cn1` [Example 36, N-[4-[(1S,3R,4S)-2-Oxa-5-azabicyclo[2.2.1]heptan-3-yl]phenyl]-5-(trifluoromethyl)pyridine-2-carboxamide], the Ki on rat TAAR1 came out at 1.28 µM; on mouse TAAR1 it was 0.0325 µM.

For `O=C(Nc1ccc([C@H]2O[C@@H]3CN[C@H]2C3)cc1)c1ccnc(C(F)(F)F)c1` [Example 25, N-[4-[(1S,3R,4S)-2-Oxa-5-azabicyclo[2.2.1]heptan-3-yl]phenyl]-2-(trifluoromethyl)pyridine-4-carboxamide], the Ki on rat TAAR1 was 0.327 µM; on mouse TAAR1, 0.0224 µM.

In the case of `Brc1ccc([C@@H]2O[C@H]3CN[C@@H]2C3)cc1` [Example 54, (1R,3S,4R)-3-(4-Bromophenyl)-2-oxa-5-azabicyclo[2.2.1]heptane], the Ki at rat TAAR1 is 0.0346 µM; on mouse TAAR1, 0.145 µM.

`CCOc1ccc(NC(=O)c2ccc([C@@H]3O[C@H]4CN[C@@H]3C4)cc2)cn1` [Example 95, N-(6-Ethoxy-3-pyridyl)-4-[(1R,3S,4R)-2-oxa-5-azabicyclo[2.2.1]heptan-3-yl]benzamide]: the results for the Ki at rat TAAR1 and at mouse TAAR1 were more than 1.45 µM and 0.0613 µM, respectively.

With `Cc1c(C2CC2)n[nH]c1C(=O)Nc1ccc([C@@H]2O[C@H]3CN[C@@H]2C3)cc1` [Example 69, 3-Cyclopropyl-4-methyl-N-[4-[(1R,3S,4R)-2-oxa-5-azabicyclo[2.2.1]heptan-3-yl]phenyl]-1H-pyrazole-5-carboxamide], the results for the Ki at rat TAAR1 and on mouse TAAR1 were 0.153 µM and 0.0066 µM, respectively.

Consider `Fc1ccc(CNc2ccc([C@H]3O[C@@H]4CN[C@H]3C4)cc2)cc1` [Example 40, N-[(4-Fluorophenyl)methyl]-4-[(1S,3R,4S)-2-oxa-5-azabicyclo[2.2.1]heptan-3-yl]aniline], for which the figures for the Ki at rat TAAR1 and at mouse TAAR1 were 0.19 µM and 0.636 µM, respectively.

On to `CCCCNc1ccc([C@H]2O[C@@H]3CN[C@H]2C3)cc1` [Example 41, N-Butyl-4-[(1S,3R,4S)-2-oxa-5-azabicyclo[2.2.1]heptan-3-yl]aniline], for which the Ki at rat TAAR1 (setting [1]) was determined as 2.83 µM; at mouse TAAR1 it was 0.0222 µM.

Turning to `O=C(NCc1ccc(Cl)cc1)c1ccc([C@H]2O[C@@H]3CN[C@H]2C3)cc1` [Example 64, N-[(4-Chlorophenyl)methyl]-4-[(1S,3R,4S)-2-oxa-5-azabicyclo[2.2.1]heptan-3-yl]benzamide], the Ki on rat TAAR1 was found to be 1.6 µM; on mouse TAAR1 it was 0.0033 µM.

With `CCc1n[nH]c(C(=O)Nc2ccc([C@@H]3O[C@H]4CN[C@@H]3C4)cc2)c1C` [Example 67, 3-Ethyl-4-methyl-N-[4-[(1R,3S,4R)-2-oxa-5-azabicyclo[2.2.1]heptan-3-yl]phenyl]-11H-pyrazole-5-carboxamide], the Ki on rat TAAR1 (setting [1]) stood at 0.503 µM; on mouse TAAR1 (read-out: Ki (μM) mouse, mouse TAAR1, HEK-293 membranes, first value of cell mouse/rat), 0.01 µM.

In the case of `c1ccc([C@@H]2O[C@H]3CN[C@@H]2C3)nc1` [Example 104, (1R,3R,4R)-3-(2-Pyridyl)-2-oxa-5-azabicyclo[2.2.1]heptane], the Ki on rat TAAR1 is more than 1.5 µM; at mouse TAAR1, more than 1.49 µM.

With `O=C(Nc1cccc(Cl)c1)Nc1cccc([C@@H]2O[C@H]3CN[C@@H]2C3)c1` [Example 5, 1-(3-Chlorophenyl)-3-[3-[(1R,3S,4R)-2-oxa-5-azabicyclo[2.2.1]heptan-3-yl]phenyl]urea], the figures for the inhibitory constant (Ki) at rat TAAR1 and on mouse TAAR1 were 0.0192 µM and 1.33 µM, respectively.

Take `O=C(CCC(F)(F)F)Nc1ccc([C@H]2O[C@@H]3CN[C@H]2C3)cc1` [Example 84, 4,4,4-Trifluoro-N-[4-[(1S,3R,4S)-2-oxa-5-azabicyclo[2.2.1]heptan-3-yl]phenyl]butanamide]: the Ki at rat TAAR1 is more than 15 µM; on mouse TAAR1 it was 0.0172 µM.

Turning to `CC(C)n1nc(OCC(F)(F)F)cc1C(=O)Nc1ccc([C@@H]2O[C@H]3CN[C@@H]2C3)cc1` [Example 89, 2-Isopropyl-N-[4-[(1R,3S,4R)-2-oxa-5-azabicyclo[2.2.1]heptan-3-yl]phenyl]-5-(2,2,2-trifluoroethoxy)pyrazole-3-carboxamide], the Ki was 0.0026 µM at rat TAAR1 and 0.028 µM on mouse TAAR1.

For `FC(F)(F)c1cnc(Nc2ccc([C@@H]3O[C@H]4CN[C@@H]3C4)cc2)nc1` [Example 31, N-[4-[(1R,3S,4R)-2-Oxa-5-azabicyclo[2.2.1]heptan-3-yl]phenyl]-5-(trifluoromethyl)pyrimidin-2-amine], the Ki worked out at 0.0777 µM on rat TAAR1 and 0.0221 µM on mouse TAAR1.

`FC(F)(F)c1ccc(Nc2ccc([C@@H]3O[C@H]4CN[C@@H]3C4)cc2)nc1` [Example 11, N-[4-[(1R,3S,4R)-2-Oxa-5-azabicyclo[2.2.1]heptan-3-yl]phenyl]-5-(trifluoromethyl)pyridin-2-amine]: the figures for the Ki at rat TAAR1 and at mouse TAAR1 were 0.0153 µM and 0.0039 µM, respectively.

Consider `O=C(Nc1ccc(C(F)(F)F)cc1)c1ccc([C@H]2O[C@@H]3CN[C@H]2C3)cc1` [Example 59, 4-[(1S,3R,4S)-2-Oxa-5-azabicyclo[2.2.1]heptan-3-yl]-N-[4-(trifluoromethyl)phenyl]benzamide], for which the Ki is 1.02 µM at rat TAAR1 and 0.0022 µM at mouse TAAR1.

Consider `O=C(Nc1ccc([C@H]2O[C@@H]3CN[C@H]2C3)cc1)c1[nH]nc(C2CC2)c1Cl` [Example 37, 4-Chloro-3-cyclopropyl-N-[4-[(1S,3R,4S)-2-oxa-5-azabicyclo[2.2.1]heptan-3-yl]phenyl]-1H-pyrazole-5-carboxamide], for which the Ki at rat TAAR1 was 2.67 µM; at mouse TAAR1, 0.0613 µM.

`FC(F)(F)c1nccc(Nc2ccc([C@H]3O[C@@H]4CN[C@H]3C4)cc2)n1` [Example 21, N-[4-[(1S,3R,4S)-2-Oxa-5-azabicyclo[2.2.1]heptan-3-yl]phenyl]-2-(trifluoromethyl)pyrimidin-4-amine]: the figures for the Ki at rat TAAR1 and at mouse TAAR1 were 0.633 µM and 0.0197 µM, respectively.

Consider `O=C(Nc1ccc([C@@H]2O[C@H]3CN[C@@H]2C3)cc1)c1ccnc(C(F)(F)F)c1` [Example 26, N-[4-[(1R,3S,4R)-2-Oxa-5-azabicyclo[2.2.1]heptan-3-yl]phenyl]-2-(trifluoromethyl)pyridine-4-carboxamide], for which the Ki was 0.137 µM at rat TAAR1 and 0.0223 µM on mouse TAAR1.

As usually defined, the Ki is the dissociation constant of the complex between target and ligand, obtained from inhibition or displacement.
